Consider four compounds from US20220177538A1, “CO-AGONISTS AT GLP-1 AND GIP RECEPTORS SUITABLE FOR ORAL DELIVERY” (Novo Nordisk A/S, priority 2020, published 2022).

One experiment addresses T1, human GIP receptor (Homo sapiens, UniProt P48546).
T1 construct: expressed in transfected cells; host or cells: BHK (parent line BHKTS13), clone BHK CRE luc2P hGIPR
T1 sequence (P48546 22-466): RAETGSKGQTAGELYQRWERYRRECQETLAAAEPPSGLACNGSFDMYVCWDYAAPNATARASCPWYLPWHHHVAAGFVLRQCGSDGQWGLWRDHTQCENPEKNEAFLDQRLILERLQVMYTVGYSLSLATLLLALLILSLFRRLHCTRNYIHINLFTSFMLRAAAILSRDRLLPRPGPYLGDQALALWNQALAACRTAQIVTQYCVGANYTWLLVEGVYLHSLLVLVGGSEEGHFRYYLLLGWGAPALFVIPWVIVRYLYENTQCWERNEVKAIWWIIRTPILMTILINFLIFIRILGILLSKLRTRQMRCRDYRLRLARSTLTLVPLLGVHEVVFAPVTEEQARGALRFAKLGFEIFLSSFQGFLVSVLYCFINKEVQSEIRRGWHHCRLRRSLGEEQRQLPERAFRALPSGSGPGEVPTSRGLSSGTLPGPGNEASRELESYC
As to the kind of experiment: In vitro functional potency, CRE luciferase reporter, whole BHK cells (hGIPR). The experiment is classed as cell-based. The following applies: BHK CRE luc2P hGIPR cells. The method, then: (§1) The in vitro functional potency is the measure of target receptor activation in a whole cell assay.
(§2) In vitro functional potency was determined by measuring the response of the target receptor in a reporter gene assay in individual cell lines. […] When the respective receptor is activated, it results in the production of cAMP, which in turn results in expression of the luciferase protein. When assay incubation is completed, luciferase substrate (luciferin) is added resulting in the enzymatic conversion of luciferin to oxyluciferin and producing bioluminescence. The luminescence is measured as the readout for the assay.
(§3) The cells lines used in these assays were BHK cells with BHKTS13 as a parent cell line. The cell lines were derived from a clone containing the CRE luciferase element and were established by further transfection with the respective human receptor to obtain the relevant cell line: BHK CRE luc2P hGLP-1R or BHK CRE luc2P hGIPR. The cells were cultured at 37° C. with 5% CO2 in Cell Culture Medium. They were aliquoted and stored in liquid nitrogen. The cells were kept in continuous culture and were seeded out the day before each assay.
(§4) GLP-1R Cell Culture Medium consisted of DMEM medium with 10% FBS, 500 µg/mL G418, and 300 µg/mL hygromycin. GIPR Cell Culture Medium consisted of DMEM medium with 10% FBS, 400 µg/mL G418, and 300 µg/mL hygromycin. Assay Buffer consisted of DMEM w/o phenol red, 10 mM Hepes, 1× Glutamax. 1% ovalbumin, and 0.1% Pluronic F-68 with the addition of HSA at twice the final assay concentration.
(§5) 1) Cells were plated at 5000 cells/well and incubated overnight in the assay plate. 2) Cells were washed once in DPBS. 3) Stocks of the test compounds and reference compounds in concentrations ranging from […] were diluted 1:150 in Assay Buffer. Compounds were then diluted 1:10 in column 1 of a 96 deep well dilution plate and then carried across the row creating a 3.5 fold, 12 point dilution curve. 4) Assay Buffer (50 μl aliquot) with or without HSA was added to each well in the assay plate. 5) A 50 μl aliquot of compound or blank was transferred from the dilution plate to the assay plate containing the Assay Buffer with or without HSA. 6) The assay plate was incubated for 3 h in a 5% CO2 incubator at 37° C. 7) The cells were washed once with DPBS. 8) A 100 μl aliquot of DPBS was added to each well of the assay plate. 9) A 100 μl aliquot of steadylite plus reagent (light sensitive) was added to each well of the assay plate. 10) Each assay plate was covered with aluminum foil to protect it from light and shaken at 250 RPM for 30 min at room temperature. 11) Each assay plate was read in a microtiter plate reader.
(§6) The data from the microtiter plate reader was first regressed in an Excel in order to calculate the x-axis, log scale concentrations based on the individual test compound's stock concentration and the dilutions of the assay. […] The software performs a non-linear regression (log(agonist) vs response). A minimum of two replicates was measured for each sample. The reported values are averages of the replicates.
In general terms: In a reporter assay the amount or activity of a reporter protein is the signal.

The target in a further experiment is human GLP-1 receptor (Homo sapiens, UniProt P43220). As to the kind of experiment: In vitro functional potency, CRE luciferase reporter, whole BHK cells (hGLP-1R). The experiment is classed as cell-based. Set-up: expressed in transfected cells; host or cells: BHK (parent line BHKTS13), clone BHK CRE luc2P hGLP-1R. The following applies: BHK CRE luc2P hGLP-1R cells. The method, then:
as §1, §2, §3, §4, §5, §6

[1] abbreviates: 0% HSA, read-out: hGIPR, CRE Luc 0% HSA EC50.
Where [2] appears, read: hGIPR, CRE Luc 1% HSA EC50, 1% HSA.
Setting [3] is: 0% HSA, read-out: hGLP-1R, CRE Luc 0% HSA EC50.
The mark [4] stands for this setting: hGLP-1R, CRE Luc 1% HSA EC50, 1% HSA.

Like-named read-outs stand apart in the source and are kept apart here. Starred links: 1 amine or outer side, 2 acyl side, 3 side chain; linkers in the order of their positions; H or OH if unused. Non-standard residues stand in square brackets, D forms with d. Residues, ends and D or L forms follow the SMILES beside them. Groups on a side chain read outwards from the residue. *: point of attachment. C18 diacid = O=C(O)CCCCCCCCCCCCCCCCC(=O)*; C16 diacid = O=C(O)CCCCCCCCCCCCCCC(=O)*; γGlu = O=C(O)[C@H](CCC(=O)[*:2])N[*:1]; εLys = N[C@@H](CCCCN[*:1])C(=O)[*:2]; Aib = CC(C)(N)C(=O)O

Chain of human GLP-1 receptor (P43220 24-463): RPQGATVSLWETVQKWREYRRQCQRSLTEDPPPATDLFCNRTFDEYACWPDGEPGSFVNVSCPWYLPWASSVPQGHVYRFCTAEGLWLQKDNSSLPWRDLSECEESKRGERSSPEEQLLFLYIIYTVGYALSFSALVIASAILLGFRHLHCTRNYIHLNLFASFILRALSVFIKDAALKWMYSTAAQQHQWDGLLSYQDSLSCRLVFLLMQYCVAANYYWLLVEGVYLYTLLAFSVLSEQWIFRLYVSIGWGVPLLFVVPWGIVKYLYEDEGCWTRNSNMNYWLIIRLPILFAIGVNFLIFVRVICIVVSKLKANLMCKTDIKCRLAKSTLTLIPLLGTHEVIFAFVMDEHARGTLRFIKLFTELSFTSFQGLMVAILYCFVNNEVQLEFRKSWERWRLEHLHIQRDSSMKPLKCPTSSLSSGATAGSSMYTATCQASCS

On to `CC[C@H](C)[C@H](NC(=O)[C@H](Cc1ccccc1)NC(=O)[C@H](CCC(=O)O)NC(=O)[C@H](CCCNC(=N)N)NC(=O)[C@H](C)NC(=O)[C@H](C)NC(=O)[C@H](CCC(N)=O)NC(=O)[C@H](CCCCNC(=O)[C@@H](N)CCCCNC(=O)[C@@H](N)CCCCNC(=O)CC[C@H](NC(=O)CCCCCCCCCCCCCCCCC(=O)O)C(=O)O)NC(=O)[C@H](CCC(=O)O)NC(=O)[C@H](CC(C)C)NC(=O)[C@H](Cc1ccc(O)cc1)NC(=O)[C@@H](NC(=O)[C@H](CO)NC(=O)[C@H](Cc1ccc(O)cc1)NC(=O)[C@H](CC(=O)O)NC(=O)[C@H](CO)NC(=O)[C@@H](NC(=O)[C@H](Cc1ccccc1)NC(=O)[C@@H](NC(=O)CNC(=O)[C@H](CCC(=O)O)NC(=O)[C@H](C)NC(=O)[C@@H](N)Cc1ccc(O)cc1)[C@@H](C)O)[C@@H](C)O)[C@@H](C)CC)C(=O)N[C@@H](CC(N)=O)C(=O)N[C@@H](Cc1c[nH]c2ccccc12)C(=O)N[C@@H](CC(C)C)C(=O)N[C@@H](CC(C)C)C(=O)N[C@@H](C)C(=O)NCC(=O)NCC(=O)N1CCC[C@H]1C(=O)N[C@@H](CO)C(=O)N[C@@H](CO)C(=O)NCC(=O)N[C@@H](C)C(=O)N1CCC[C@H]1C(=O)N1CCC[C@H]1C(=O)N1CCC[C@H]1C(=O)N[C@@H](CO)C(=O)O` [Compound 17] (H-YAEGTFTSDYSIYLEK([εLys-εLys-γGlu-C18 diacid])QAAREFINWLLAGGPSSGAPPPS-OH), for which the concentration giving a half-maximal response (EC50) at human GIP receptor (setting [1]) turned out to be 0.0349 nM; at human GIP receptor (setting [2]) it was 1.32 nM; on human GLP-1 receptor (setting [3]) it was 0.0052 nM; at human GLP-1 receptor (setting [4]) it was 0.257 nM.
On the same counts, the results for `CC(C)C[C@H](NC(=O)[C@H](CC(C)C)NC(=O)[C@H](Cc1c[nH]c2ccccc12)NC(=O)[C@H](CC(N)=O)NC(=O)[C@@H](NC(=O)[C@H](Cc1ccccc1)NC(=O)[C@H](CCC(=O)O)NC(=O)[C@H](CCC(N)=O)NC(=O)[C@H](C)NC(=O)[C@H](C)NC(=O)[C@H](CCC(N)=O)NC(=O)[C@H](CCCCNC(=O)[C@@H](N)CCCCNC(=O)[C@@H](N)CCCCNC(=O)CC[C@H](NC(=O)CCCCCCCCCCCCCCCCC(=O)O)C(=O)O)NC(=O)[C@H](CCC(=O)O)NC(=O)[C@H](CC(C)C)NC(=O)[C@H](Cc1ccc(O)cc1)NC(=O)[C@H](Cc1ccc(O)cc1)NC(=O)[C@H](CO)NC(=O)[C@H](Cc1ccc(O)cc1)NC(=O)[C@H](CC(=O)O)NC(=O)[C@H](CO)NC(=O)[C@@H](NC(=O)[C@H](Cc1ccccc1)NC(=O)[C@@H](NC(=O)CNC(=O)[C@H](CCC(=O)O)NC(=O)C(C)(C)NC(=O)[C@@H](N)Cc1ccc(O)cc1)[C@@H](C)O)[C@@H](C)O)C(C)C)C(=O)N[C@@H](C)C(=O)NCC(=O)NCC(=O)N1CCC[C@H]1C(=O)N[C@@H](CO)C(=O)N[C@@H](CO)C(=O)NCC(=O)N[C@@H](C)C(=O)N1CCC[C@H]1C(=O)N1CCC[C@H]1C(=O)N1CCC[C@H]1C(=O)N[C@@H](CO)C(N)=O` [Compound 3] (H-Y[Aib]EGTFTSDYSYYLEK([εLys-εLys-γGlu-C18 diacid])QAAQEFVNWLLAGGPSSGAPPPS-NH2) are 0.0069 nM, 0.229 nM, 0.0085 nM and 0.626 nM.
On the same counts, the results for `CC[C@H](C)[C@H](NC(=O)[C@H](Cc1ccccc1)NC(=O)[C@H](CCC(=O)O)NC(=O)[C@H](CCCNC(=N)N)NC(=O)[C@H](C)NC(=O)[C@H](C)NC(=O)[C@H](CCC(N)=O)NC(=O)[C@H](CCC(=O)O)NC(=O)[C@H](CCC(=O)O)NC(=O)[C@H](CC(C)C)NC(=O)[C@H](CC(C)C)NC(=O)[C@@H](NC(=O)[C@H](CO)NC(=O)[C@H](Cc1ccc(O)cc1)NC(=O)[C@H](CC(=O)O)NC(=O)[C@H](CO)NC(=O)[C@@H](NC(=O)[C@H](Cc1ccccc1)NC(=O)[C@@H](NC(=O)CNC(=O)[C@H](CCC(=O)O)NC(=O)C(C)(C)NC(=O)[C@@H](N)Cc1ccc(O)cc1)[C@@H](C)O)[C@@H](C)O)[C@@H](C)CC)C(=O)N[C@@H](CCC(=O)O)C(=O)N[C@@H](Cc1c[nH]c2ccccc12)C(=O)N[C@@H](CC(C)C)C(=O)N[C@@H](CC(C)C)C(=O)N[C@@H](C)C(=O)NCC(=O)NCC(=O)N1CCC[C@H]1C(=O)N[C@@H](CO)C(=O)N[C@@H](CCCCNC(=O)[C@@H](N)CCCCNC(=O)[C@@H](N)CCCCNC(=O)CC[C@H](NC(=O)CCCCCCCCCCCCCCC(=O)O)C(=O)O)C(=O)NCC(=O)N[C@@H](C)C(=O)N1CCC[C@H]1C(=O)N1CCC[C@H]1C(=O)N1CCC[C@H]1C(=O)N[C@@H](CO)C(=O)O` [Compound 46] (H-Y[Aib]EGTFTSDYSILLEEQAAREFIEWLLAGGPSK([εLys-εLys-γGlu-C16 diacid])GAPPPS-OH) are 0.0018 nM, 0.097 nM, 0.0015 nM and 0.111 nM.
On the same counts, the results for `CC[C@H](C)[C@H](NC(=O)[C@H](Cc1ccccc1)NC(=O)[C@H](CCC(=O)O)NC(=O)[C@H](CCCNC(=N)N)NC(=O)[C@H](C)NC(=O)[C@H](C)NC(=O)[C@H](CCC(N)=O)NC(=O)[C@H](CCCCNC(=O)[C@@H](N)CCCCNC(=O)[C@@H](N)CCCCNC(=O)CC[C@H](NC(=O)CCCCCCCCCCCCCCCCC(=O)O)C(=O)O)NC(=O)[C@H](CCC(=O)O)NC(=O)[C@H](CC(C)C)NC(=O)[C@@H](NC(=O)[C@@H](NC(=O)[C@H](CO)NC(=O)[C@H](Cc1ccc(O)cc1)NC(=O)[C@H](CC(=O)O)NC(=O)[C@H](CO)NC(=O)[C@@H](NC(=O)[C@H](Cc1ccccc1)NC(=O)[C@@H](NC(=O)CNC(=O)[C@H](CCC(=O)O)NC(=O)C(C)(C)NC(=O)[C@@H](N)Cc1ccc(O)cc1)[C@@H](C)O)[C@@H](C)O)[C@@H](C)CC)[C@@H](C)CC)C(=O)N[C@@H](CC(N)=O)C(=O)N[C@@H](Cc1c[nH]c2ccccc12)C(=O)N[C@@H](CC(C)C)C(=O)N[C@@H](CC(C)C)C(=O)N[C@@H](C)C(=O)NCC(=O)NCC(=O)N1CCC[C@H]1C(=O)N[C@@H](CO)C(=O)N[C@@H](CO)C(=O)NCC(=O)N[C@@H](C)C(=O)N1CCC[C@H]1C(=O)N1CCC[C@H]1C(=O)N1CCC[C@H]1C(=O)N[C@@H](CO)C(=O)O` [Compound 34] (H-Y[Aib]EGTFTSDYSIILEK([εLys-εLys-γGlu-C18 diacid])QAAREFINWLLAGGPSSGAPPPS-OH) are 0.0083 nM, 0.213 nM, 0.006 nM and 0.186 nM.

By EC50 is commonly meant the concentration giving half of the maximal effect.
